# Test results from patent EP4603105A1, “PHARMACEUTICAL COMPOSITION CONTAINING CYCLIC COMPOUND HAVING SELECTIVE KRAS INHIBITORY EFFECT AGAINST HRAS AND NRAS” (CHUGAI SEIYAKU KABUSHIKI KAISHA, priority 2022, dated 2024).
# Where a SMILES comes first, the peptide text is derived from it. Bridges are numbered along the chain shown (N, C = ends). [ ]: non-standard residue; d: D form. The star is where a group is joined. hPhe(3-Cl-4-CF3) = N[C@@H](CCc1ccc(C(F)(F)F)c(Cl)c1)C(=O)O; NPrPhe(4-CF3) = CCCN[C@@H](Cc1ccc(C(F)(F)F)cc1)C(=O)O; NEtPhe(4-Me) = CCN[C@@H](Cc1ccc(C)cc1)C(=O)O; NMeGly(cPent) = CN[C@H](C(=O)O)C1CCCC1; Pro(4,4-F2) = O=C(O)[C@@H]1CC(F)(F)CN1; NMeD = CN[C@@H](CC(=O)O)C(=O)O; NMeL = CN[C@@H](CC(C)C)C(=O)O; NMeV = CN[C@H](C(=O)O)C(C)C; Morpholide = C1CN(*)CCO1; Ac5c = NC1(C(=O)O)CCCC1; Aze = O=C(O)[C@@H]1CCN1; Sar = CNCC(=O)O
# Columns and labels:
# [1] = target: GDP-bound KRAS wild-type protein (Homo sapiens, UniProt P01116); assay: Binding to KRAS by surface plasmon resonance (SPR), dissociation constant KD
# Sequence of GDP-bound KRAS wild-type protein (P01116 1-188 isoform P01116-2): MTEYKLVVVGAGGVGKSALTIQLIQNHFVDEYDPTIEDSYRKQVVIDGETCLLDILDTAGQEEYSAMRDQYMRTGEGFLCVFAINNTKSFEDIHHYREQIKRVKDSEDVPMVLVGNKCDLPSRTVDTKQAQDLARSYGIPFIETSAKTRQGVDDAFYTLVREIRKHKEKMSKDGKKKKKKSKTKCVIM
# Summary of the method: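 Captured GDP-RAS (~100–300 RU) was exposed to increasing compound concentrations, 75 s per step, in running buffer with 10 µM GDP, 10 mM MgCl2 and 4% DMSO at pH 7.4.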
# HRAS wild-type protein = HRAS wild-type protein (Homo sapiens, UniProt P01112); assay: Binding to HRAS by surface plasmon resonance (SPR), KD and KD ratio to KRAS
# Sequence of HRAS wild-type protein (P01112 whole entry): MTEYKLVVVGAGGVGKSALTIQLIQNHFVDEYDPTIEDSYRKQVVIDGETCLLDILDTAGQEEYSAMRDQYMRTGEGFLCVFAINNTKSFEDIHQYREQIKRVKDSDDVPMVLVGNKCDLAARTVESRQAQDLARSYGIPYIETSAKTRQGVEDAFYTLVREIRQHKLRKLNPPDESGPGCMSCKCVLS
# Summary of the method: (§1)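 Single-cycle kinetics on GDP-loaded biotin-Avi RAS captured to ~100–300 RU; 75 s ascending injections, 100 µL/min, 30°C. HBS pH 7.4 + 10 mM MgCl2/10 µM GDP/4% DMSO. 1:1 fit, KD.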
# [2] = system: human lung cancer strain NCI-H441; assay type: cell-based
# Summary of the method: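 Proliferation was scored by […] measured after the reagent was added to cultures kept at 37°C in 5% carbon dioxide.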
# [3] = target: GDP-bound NRAS wild-type protein (Homo sapiens, UniProt P01111); assay: Binding to NRAS by surface plasmon resonance (SPR), KD and KD ratio to KRAS
# Sequence of GDP-bound NRAS wild-type protein (P01111 whole entry): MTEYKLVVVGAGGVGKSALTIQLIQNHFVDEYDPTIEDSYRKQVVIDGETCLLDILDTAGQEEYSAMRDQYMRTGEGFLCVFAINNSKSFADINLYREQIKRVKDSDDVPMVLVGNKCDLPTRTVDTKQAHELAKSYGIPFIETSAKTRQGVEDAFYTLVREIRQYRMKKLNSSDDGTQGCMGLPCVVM
# Summary of the method: as §1
# [4] = Single Cycle Kinetics, 1:1 binding model
# [5] = ratio of the KD value with respect to HRAS wild-type protein to the KD value with respect to KRAS
# [6] = ratio of the KD value with respect to GDP-bound NRAS wild-type protein to the KD value with respect to KRAS
# [7] = ratio of KD for HRAS wild-type protein to KD for KRAS
# [8] = ratio of KD for GDP-bound NRAS wild-type protein to KD for KRAS
"Kd [1, 4] [nM]",IC50 [2] [nM],SMILES,HRAS /KRAS (HRAS wild-type protein; [5]),"NRAS /KRAS [3, 6]",HRAS /KRAS (HRAS wild-type protein; [7]),"NRAS /KRAS [3, 8]",also measured
1.9,44.7,CCC[C@H]1C(=O)N[C@@H]([C@@H](C)CC)C(=O)N(C)CC(=O)N(C)[C@H]2C/C=C\CCN(C2=O)[C@@H](CC2CCCCC2)C(=O)N(C)CC(=O)N[C@@H](CCc2ccc(C(F)(F)F)c(OC)c2)C(=O)N2C[C@H](OCC)C[C@H]2C(=O)N(C)C2(CCC2)C(=O)N(C)[C@@H](C(CC)CC)C(=O)N(C)[C@H](C(=O)N(C)C)CC(=O)N1C [PP2333],A (a compound having 10 or more and less than 20 is denoted as A),A (a compound having 10 or more and less than 20 is denoted as A),,,
0.11,17.5,CCCOC[C@H]1C(=O)N[C@@H]([C@@H](C)CC)C(=O)N(C)CC(=O)N(C)[C@H]2C/C=C\CCN(C2=O)[C@@H](Cc2ccc(C(F)(F)F)cc2)C(=O)N(C)CC(=O)N[C@@H](CCc2ccc(C(F)(F)F)c(OC)c2)C(=O)N2C[C@@H](C)C[C@H]2C(=O)NC2(CCC2)C(=O)N(C)[C@@H](C2CCCC2)C(=O)N(C)[C@H](C(=O)N(C)CCC)CC(=O)N1C [PP2028],B (a compound having 3 or more and less than 10 is denoted as B),A (a compound having 10 or more and less than 20 is denoted as A),,,
,13.3,CCO[C@@H]1C[C@H]2C(=O)NC3(CC(C)(C)C3)C(=O)N(C)[C@@H](C3CCCC3)C(=O)N(C)[C@H](C(=O)N(C)CC)CC(=O)N(C)[C@@H]([C@@H](C)OC)C(=O)N[C@@H]([C@@H](C)CC)C(=O)N(C)CC(=O)N(C)[C@H]3C/C=C\CCN(C3=O)[C@@H](Cc3ccc(C)cc3)C(=O)N(C)CC(=O)N[C@@H](CCc3ccc(C(F)(F)F)c(Cl)c3)C(=O)N2C1 [PP3180],,,B (a compound having 3 or more and less than 10 is denoted as B),B (a compound having 3 or more and less than 10 is denoted as B),Kd ([1]; 1:1 binding model): 0.37 nM
0.11,10.5,CCCN(C)C(=O)[C@@H]1CC(=O)N(C)[C@@H](C2CCC2)C(=O)N[C@@H]([C@@H](C)CC)C(=O)N(C)CC(=O)N(C)[C@H]2C/C=C\CCN(C2=O)[C@@H](Cc2ccc(C(F)(F)F)cc2)C(=O)N(C)CC(=O)N[C@@H](CCc2ccc(C(F)(F)F)c(OC)c2)C(=O)N2C[C@H](OCC)C[C@H]2C(=O)NC2(CCC2)C(=O)N(C)[C@@H](C2CCCC2)C(=O)N1C [PP2023],B (a compound having 3 or more and less than 10 is denoted as B),A (a compound having 10 or more and less than 20 is denoted as A),,,
,55.4,CCC(CC)[C@H]1C(=O)N(C)[C@H](C(=O)N(C)C)CC(=O)N(C)[C@@H](COC)C(=O)N[C@@H]([C@@H](C)CC)C(=O)N(C)CC(=O)N(C)[C@H]2C/C=C\CCN(C2=O)[C@@H](Cc2ccc(C)cc2)C(=O)N(C)CC(=O)N[C@@H](CCc2cc(F)c(C(F)(F)F)c(F)c2)C(=O)N2CCCC[C@H]2C(=O)NC2(CC(C)(C)C2)C(=O)N1C [PP2922],,,A (a compound having 10 or more and less than 20 is denoted as A),AA (a compound having 20 or more is denoted as AA),Kd ([1]; 1:1 binding model): 1.1 nM

# Further lines, the compound ahead of its results:
SMILES,"Kd [1, 4] [nM]",IC50 [2] [nM],HRAS /KRAS (HRAS wild-type protein; [5]),"NRAS /KRAS [3, 6]",HRAS /KRAS (HRAS wild-type protein; [7]),"NRAS /KRAS [3, 8]",also measured
CCO[C@@H]1C[C@H]2C(=O)NC3(CCC3)C(=O)N(C)[C@@H](C3CCCC3)C(=O)N(C)[C@H](C(=O)N(C)C)CC(=O)N(C)[C@@H](CC3CCCCC3)C(=O)N[C@@H]([C@@H](C)CC)C(=O)N(C)CC(=O)N(C)[C@H]3CCCCCN(C3=O)[C@@H](Cc3ccc(C(F)(F)F)cc3)C(=O)N(C)CC(=O)N[C@@H](CCc3cc(F)c(C(F)(F)F)c(F)c3)C(=O)N2C1 [PP0671],0.67,32.5,B (a compound having 3 or more and less than 10 is denoted as B),B (a compound having 3 or more and less than 10 is denoted as B),,,
CC[C@H](C)[C@@H]1NC(=O)[C@H](CC(C)C)N(C)C(=O)C[C@@H](C(=O)N2CCOCC2)N(C)C(=O)[C@H](C(C)C)N(C)C(=O)C2(CCCC2)NC(=O)[C@@H]2CCCN2C(=O)[C@H](CCc2ccc(C(F)(F)F)c(Cl)c2)NC(=O)CN(C)C(=O)[C@H](Cc2ccc(C)cc2)N(CC)C(=O)CN(C)C(=O)CN(C)C1=O [PP0044] ([NMeL]I[Sar][Sar][NEtPhe(4-Me)][Sar][hPhe(3-Cl-4-CF3)]P[Ac5c][NMeV][NMeD]-Morpholide; lactam N-11),,142,,,C (A compound having a KD ratio of 0.1 or more and less than 3 is denoted as C),C (A compound having a KD ratio of 0.1 or more and less than 3 is denoted as C),Kd ([1]; 1:1 binding model): 3.6 nM
CC[C@H](C)[C@@H]1NC(=O)[C@H](Cc2cccc(Cl)c2)N(C)C(=O)C[C@@H](C(=O)N2CCOCC2)N(C)C(=O)[C@H](C2CCCC2)N(C)C(=O)C2(CCCC2)NC(=O)[C@@H]2CCCN2C(=O)[C@H](CCc2ccc(C(F)(F)F)c(Cl)c2)NC(=O)CN(C)C(=O)[C@H](Cc2ccc(F)cc2)N2CCCCC[C@@H](C2=O)N(C)C(=O)CN(C)C1=O [PP0963],,100,,,B (a compound having 3 or more and less than 10 is denoted as B),B (a compound having 3 or more and less than 10 is denoted as B),Kd ([1]; Single Cycle Kinetics): 0.78 nM
"CCCN1C(=O)CN(C)C(=O)[C@@H]2CCN2C(=O)[C@H]([C@@H](C)CC)NC(=O)[C@H](CC(C)C)N(C)C(=O)C[C@@H](C(=O)N(C)C)N(C)C(=O)[C@H](C2CCCC2)N(C)C(=O)C2(CCCC2)NC(=O)[C@@H]2CC(F)(F)CN2C(=O)[C@H](CCc2ccc(C(F)(F)F)c(Cl)c2)NC(=O)CN(C)C(=O)[C@@H]1Cc1ccc(C(F)(F)F)cc1 [PP0431] ([NMeL]I[Aze][Sar][NPrPhe(4-CF3)][Sar][hPhe(3-Cl-4-CF3)][Pro(4,4-F2)][Ac5c][NMeGly(cPent)][NMeD]-NMe2; lactam N-11)",0.35,9.9,C (A compound having a KD ratio of 0.1 or more and less than 3 is denoted as C),B (a compound having 3 or more and less than 10 is denoted as B),,,
CC[C@H](C)[C@@H]1NC(=O)[C@H](CC(C)C)N(C)C(=O)C[C@@H](C(=O)N2C[C@@H](C)O[C@@H](C)C2)N(C)C(=O)[C@H](C2CCCC2)N(C)C(=O)C2(CCCC2)NC(=O)[C@@H]2CCCN2C(=O)[C@H](CCc2ccc(C(F)(F)F)c(Cl)c2)NC(=O)CN(C)C(=O)[C@H](Cc2ccc(F)cc2)N2CCCCC[C@@H](C2=O)N(C)C(=O)CN(C)C1=O [PP1151],0.64,97.1,,,,,HRAS /KRAS (HRAS wild-type protein; ratio of KD with respect to HRAS wild-type protein to KD with respect to KRAS): B (a compound having 3 or more and less than 10 is denoted as B); NRAS /KRAS ([3]; ratio of KD with respect to GDP-bound NRAS wild-type protein to KD with respect to KRAS): B (a compound having 3 or more and less than 10 is denoted as B)
CCO[C@@H]1C[C@H]2C(=O)NC3(CCC3)C(=O)N(C)[C@@H](C3CCCC3)C(=O)N(C)[C@H](C)CC(=O)N(C)[C@@H](CC(C)C)C(=O)N[C@@H]([C@@H](C)CC)C(=O)N(C)CC(=O)N(C)[C@H]3C/C=C\CCN(C3=O)[C@@H](Cc3ccc(F)cc3)C(=O)N(C)CC(=O)N[C@@H](CCc3cc(F)c(C(F)(F)F)c(F)c3)C(=O)N2C1 [PP1494],0.58,142,,,,,HRAS /KRAS (HRAS wild-type protein; ratio of KD value for HRAS wild-type protein to KD value for KRAS (SPR)): B (a compound having 3 or more and less than 10 is denoted as B); NRAS /KRAS ([3]; ratio of KD value for GDP-bound NRAS wild-type protein to KD value for KRAS (SPR)): B (a compound having 3 or more and less than 10 is denoted as B)
